Marks after values point to notes of the source that are not given here.
Tests used:
T cells = assay: Intracellular cAMP in T cells; assay type: cell-based
[1] = Radiation immunodeficiency correction two months after irradiation (Chernobyl), blood parameters; assay type: in vivo, human; conditions: after IM862 therapy
Experimental: These patients were treated for 2 months immediately succeeding exposure to radiation caused from the Chernobyl nuclear accident. As a control, about 19 people exposed to radiation were tested for various blood parameters to establish a baseline.

[2] = Spontaneous tumorigenesis, experimental models; assay type: in vivo; conditions: IM862 prophylactically
Post-term women = assay type: in vivo, human; conditions: IM862 IM or intranasally over 3-5 days, 19 women
Experimental: A total of 19 post-term women and 48 women post-term in the control study were treated.

[3] = Immune system of guinea pigs after radiation exposure (thymus, lymph node, spleen, blood); assay type: in vivo
Excerpt: Seventy-two of the animals were irradiated with total radiation dose was 1 Gr. […] The selected doses were optimal in stimulating an immune response to ram erythrocytes. Control irradiated and non-irradiated animals (24 guinea pigs to each group) were given saline solution per an analogous schedule. At 5, 10, and 20 days after irradiation the animals were destroyed (8 guinea pigs from each group). The thymus, spleen, and lymph nodes of each animal were extracted and their weight coefficients computed. The number of karyocytes, T-, B-, and O-lymphocytes in each organ was determined. Also, the functional activity of blood lymphocytes in the leukocyte migration inhibition reaction to Con A was assessed and the content of cation proteins in the neutrophils was determined.

hemorrhagic Dengue Fever = assay: Hemorrhagic Dengue Fever study, duration of symptoms; assay type: in vivo, human; conditions: IM862 administered
Experimental: All those examined were representatives of organized collectives and had the same type of working and living conditions prior to the onset of illness. The patients were referred to in-patient treatment to the 175th Military Hospital in Ho Chi Minh City during an epidemic of Dengue fever in southern Socialist Republic of Vietnam.
Diagnoses of HDF were established by criteria recommended by the WHO (1986). Serological analyses were performed at the Arbovirus Infections Laboratory of the Pasteur Institute (Ho Chi Minh City). Disease severity was 1-2 in all patients.
The patients were divided into one group treated with IM862 and one group not receiving IM862. […] The efficacy of therapy was determined by observation of the duration of the most frequently encountered signs and symptoms of the disease (Table 14).

[4] = Pediatric purulent maxillary sinusitis, local IM862; assay type: in vivo, human; conditions: for B-lymphocytes % / B-lymphocytes abs. / Immune complexes / Leukocytes, abs / Lymphocytes % / Lymphocytes, abs / O-lymphocytes % / O-lymphocytes abs. / T-lymphocytes % / T-lymphocytes abs. / Lysozyme: after treatment c IM862
[5] = test system: Mycobacterium tuberculosis
[6] = 20 days after irradiation, IM862 0.01 mg/kg daily for 5 days
[7] = acute purulent maxillary sinusitis
[8] = chronic purulent maxillary sinusitis and Highmore ethmoiditis
[9] = second group, after IM862 treatment
[10] = following two months of treatment, with chemotherapy

Glu-Trp [IM862]
intracellular cAMP concentrations (T cells): an increase of intracellular cAMP concentrations is observed | CD2, % [1]: 48.7 ± 1.8 % | CD2, abs [1]: 1.13 ± 0.08** 10^9/l | CD2-DR+, % [1]: 30.0 ± 1.2 % | CD2-DR+, abs [1]: 0.55 ± 0.06* 10^9/l | CD19, % [1]: 27 ± 4% | CD19, abs [1]: 0.51 ± 0.10** 10^9/l | E-RFC, % [1]: 27.4 ± 2.4 % | IgA [1]: 1.49 ± 0.19 g/L | IgG [1]: 10.0 ± 1.0 g/L | IgM [1]: 1.00 ± 0.10 g/L | LMI with ConA, % [1]: 90 ± 10 % | Leukocytes, abs [1]: 5.0 ± 1.2** 10^9/l | Lymphocytes, 2abs [1]: 1.9 ± 0.4* 10^9/l | spontaneous tumorigenesis [2]: diminished frequency of spontaneous tumorigenesis | clinical effect (Post-term women): effacement of the cervix | cation protein count in the blood neutrophils ([3]; 10 and 20 days after irradiation): normalized at 10 and 20 days after irradiation | Lymph Node: B-lymphocytes % [3, 6]: 3.5 ± 0.6^x % | Lymph Node: B-lymphocytes ×10^3/mg [3, 6]: 9.2 ± 0.9^x ×10^3/mg | Lymph Node: Lymphocytes ×10^3/mg [3, 6]: 242.5 ± 31.3^xx ×10^3/mg | Lymph Node: O-lymphocytes % [3, 6]: 84.4 ± 12.3% | Lymph Node: O-lymphocytes ×10^3/mg [3, 6]: 204.6 ± 33.4^xx ×10^3/mg | Lymph Node: T-lymphocytes % [3, 6]: 12.3 ± 0.9% | Lymph Node: T-lymphocytes ×10^3/mg [3, 6]: 29.9 ± 2.2^xx ×10^3/mg | Lymph Node: Weight coefficient [3, 6]: 0.31 ± 0.03 g/kg | Lymph Node: “Active” T-lymphocytes % [3, 6]: 10.3 ± 1.4% | Lymph Node: “Active” T-lymphocytes ×10^3/mg [3, 6]: 24.9 ± 3.7^xx ×10^3/mg | Splenic: B-lymphocytes % [3, 6]: 27.1 ± 2.6% | Splenic: B-lymphocytes ×10^3/mg [3, 6]: 81.6 ± 9.3 ×10^3/mg | Splenic: Lymphocytes ×10^3/mg [3, 6]: 260.4 ± 32.3^xx ×10^3/mg | Splenic: O-lymphocytes % [3, 6]: 57.4 ± 6.7% | Splenic: O-lymphocytes ×10^3/mg [3, 6]: 149.4 ± 15.9^x ×10^3/mg | Splenic: T-lymphocytes % [3, 6]: 17.4 ± 1.2% | Splenic: T-lymphocytes ×10^3/mg [3, 6]: 45.4 ± 4.1^xx ×10^3/mg | Splenic: Weight coefficient [3, 6]: 1.26 ± 0.9 g/kg | Splenic: “Active” T-lymphocytes % [3, 6]: 11.1 ± 2.0% | Splenic: “Active” T-lymphocytes ×10^3/mg [3, 6]: 28.9 ± 3.9^xx ×10^3/mg | Thymic: B-lymphocytes % [3, 6]: 0.9 ± 0.08^xx % | Thymic: B-lymphocytes ×10^3/mg [3, 6]: 3.7 ± 0.4 ×10^3/mg | Thymic: Lymphocytes ×10^3/mg [3, 6]: 423.3 ± 40.4^xx ×10^3/mg | Thymic: O-lymphocytes % [3, 6]: 17.9 ± 0.8% | Thymic: O-lymphocytes ×10^3/mg [3, 6]: 75.4 ± 8.6^xx ×10^3/mg | Thymic: T-lymphocytes % [3, 6]: 81.3 ± 9.3% | Thymic: T-lymphocytes ×10^3/mg [3, 6]: 342.8 ± 30.4^xx ×10^3/mg | Thymic: Weight coefficient g/kg [3, 6]: 0.81 ± 0.8^xx g/kg | Thymic: “Active” T-lymphocytes % [3, 6]: 57.6 ± 6.2^xx % | Thymic: “Active” T-lymphocytes ×10^3/mg [3, 6]: 242.6 ± 26.8^xx ×10^3/mg | percent of leukocyte migration (blood lymphocytes, Con A) ([3]; irradiated guinea pigs, 5 and 20 days after irradiation): normalized this index by 20 days after radiation exposure | Duration of Abdominal pain (hemorrhagic Dengue Fever): 7.7 ± 1.1 days | Duration of Anorexia (hemorrhagic Dengue Fever): 7.5 ± 0.8 days | Duration of Headaches (hemorrhagic Dengue Fever): 8.1 ± 0.9 days | Duration of Hepatomegaly (hemorrhagic Dengue Fever): 11.3 ± 0.8 days | Duration of Insomnia (hemorrhagic Dengue Fever): 7.1 ± 0.7 days | Duration of Joint pain (hemorrhagic Dengue Fever): 7.4 ± 0.7 days | Duration of Low back pain (hemorrhagic Dengue Fever): 8.1 ± 0.8 days | Duration of Lumbar pain (hemorrhagic Dengue Fever): 8.7 ± 0.7 days | Duration of Ophthalmalgia (hemorrhagic Dengue Fever): 6.6 ± 0.8 days | Duration of Splenomegaly (hemorrhagic Dengue Fever): 9.6 ± 0.7 days | Duration of Weakness/fatigue (hemorrhagic Dengue Fever): 9.3 ± 0.8 days | Duration of Fever, Prescription 2-4 days (hemorrhagic Dengue Fever; total dose 500 μg): 4.7 ± 0.2 days | Duration of Fever, Prescription 2-6 days (hemorrhagic Dengue Fever; total dose 500 μg): 5.2 ± 0.3 days | B-lymphocytes % [4, 7]: 21.9 ± 2.1% | B-lymphocytes abs. [4, 7]: 778.0 ± 89.9 | Immune complexes [4, 7]: 113.3 ± 15.3 | Leukocytes, abs [4, 7]: 7200.0 ± 234.5 | Lymphocytes % [4, 7]: 44.7 ± 1.7% | Lymphocytes, abs [4, 7]: 3281.3 ± 235.0 | O-lymphocytes % [4, 7]: 34.3 ± 2.4% | O-lymphocytes abs. [4, 7]: 1082.0 ± 21.0 | T-lymphocytes % [4, 7]: 41.8 ± 1.2% | T-lymphocytes abs. [4, 7]: 1420.3 ± 131.6 | Lysozyme ([4]; acute purulent maxillary sinusitis, outwash from sinuses): 45.0 ± 5.9 | B-lymphocytes % [4, 8]: 20.7 ± 0.7% | B-lymphocytes abs. [4, 8]: 562.0 ± 38.1 | Immune complexes [4, 8]: 90.8 ± 10.0 | Leukocytes, abs [4, 8]: 6650.0 ± 262.2 | Lymphocytes % [4, 8]: 41.5 ± 2.6% | Lymphocytes, abs [4, 8]: 2761.8 ± 212.6 | Lysozyme [4, 8]: 52.4 ± 4.1 | O-lymphocytes % [4, 8]: 37.4 ± 1.9% | O-lymphocytes abs. [4, 8]: 1052.5 ± 109.3 | T-lymphocytes % [4, 8]: 41.8 ± 1.0% | T-lymphocytes abs. [4, 8]: 1109.8 ± 74.1 | time until improvement was noted ([4]; first group): 2 to 3 days | average hospital stay ([4]; first group (acute and subacute)): 9.2 days | quantity of crystallization centers in irrigated fluid ([4]; first group, end of treatment): 30-50 | cessation of exudation, number of patients ([4]; first group, in 7-9 days of treatment): 3 patients | cessation of exudation, number of patients ([4]; first group, on the 6th day of treatment): 5 patients | nasal breathing and general sense of wellness normalized, number of patients ([4]; second group): 38 patients | average hospital stay ([4]; second group (chronic)): 8 days | immunoglobulin M remained elevated, number of patients [4, 9]: 24 patients | serum immunoglobulin A normalized, number of patients [4, 9]: 10 patients | serum immunoglobulin G normalized, number of patients [4, 9]: 6 patients | increase in exudation from the affected sinuses ([4]; second group, at 3-4 days of treatment vs second 24-hour period): 10-15% | quantity of crystallization centers in irrigated fluid ([4]; second group, control crystallograms): 50-60 | disappearance of edema of the nasal mucosa, number of patients ([4]; second group, following 4-5 days of treatment): 32 patients | exudate attained a mucous character, number of patients ([4]; second group, in 3-4 days): 27 patients | cessation of exudation, number of patients ([4]; second group, in 4-6 days): 18 patients | exudate attained a mucous character, number of patients ([4]; second group, in 5-6 days): 13 patients | cessation of exudation, number of patients ([4]; second group, in 7-9 days): 20 patients | exudate attained a mucous character, number of patients ([4]; second group, in 7-9 days): two | cessation of exudation, number of patients ([4]; second group, in 10-14 days): 4 patients | therapeutic action during localized use ([4]; various forms of paranasal sinusitis): normalization of nasal breathing, decrease in nasal cavity mucosal edema, cessation of exudation from the involved sinuses | effect on immunological indices ([5]; after 2 months of observation): normalizing effect | positive changes in the lungs, cases out of 37 ([5]; after 4-6 months of in-hospital treatment): 35 cases | improvement, number of patients [5, 10]: 27 | significant improvement, number of patients [5, 10]: 9

— patent US20030198617A1, “Pharmaceutical tryptophan containing dipeptide compositions and methods of use thereof” (priority 1993, published 2003)
